# Reference: patent US11576913B2 (priority 2018, dated 2023)
# Where two headings read alike, the source gives them in different places.
# What was measured:
# clinical [1] = format: in vivo, human
# Description: The highest doses tested in healthy subjects were for a 30-mg single dose and a 10-mg multiple dose (once daily nighttime dose for 14 days). The highest dose tested in subjects with insomnia was 10 mg.
# clinical [2] = format: in vivo, human; conditions: for Fe, Mean (CV %): unchanged in urine; for CLr, Mean / Tmax / half-life / AUC / CL renal / Cmax: human, in vivo; for half-life: read-out: T1/2, Mean (CV %) (converted); for AUC / Cmax: Mean (CV %); for CL renal: CLr, Mean
# Excerpt: This study was designed to evaluate the safety and pharmacokinetic (“PK”) interactions between Compound (1C) and alcohol in healthy subjects. […] The study was designed as a single-site, randomized, single-dose, double-blinded, placebo-controlled crossover study, and 46 subjects completed treatment as part of the study.
# The dose of alcohol at 0.7 g/kg was consistent with the NIAAA definition of binge drinking, which can lead to blood alcohol concentration of approximately 0.08 g/dL. In the United States this is generally considered the level at which a person is legally impaired. In addition, such dose level has been studied in previously completed relevant alcohol interaction study in which the safety and tolerability were established in a similar population (Hong Sun et al. “Psychomotor effects, pharmacokinetics and safety of the orexin receptor antagonist suvorexant administered in combination with alcohol in healthy subjects.” Journal of Psychopharmacology 2015, Vol. 29(11) 1159-1169).
# Briefly, blinded alcoholic beverage or placebo beverage was consumed over a 20- to 30-minute period. The beverage was divided into 3 parts, with approximately ⅓ administered (consumed to completion by subject at their own pace) every 10 minutes, […], in order to control for drinking rate.
# Subjects swallowed Compound (1C) with the alcoholic beverage, with small sips of water as needed if the subject could not drink the alcohol quickly enough to consume the alcohol. […] A mouthwash with water was provided before and at the end of dosing. A mouth check was performed to verify that the Compound (1C) doses administered are swallowed. Vital signs and oxygen saturation, SpO2, (FIG. 26) were collected for evaluation by the investigator.
# AUCt Area under the plasma concentration-time curve from hour 0 to the last measurable plasma concentration, calculated by the linear trapezoidal method.
# AUCinf Area under the plasma concentration-time curve extrapolated to infinity:
# Where Ct is the last measurable plasma concentration and […] is the apparent terminal phase rate constant;
# Cmax Maximum observed plasma concentration
# Tmax Time to maximum plasma concentration
# T1/2 Apparent terminal phase half-life: T1/2=(ln2)/λz
# [3] = system: subjects suffering from the Insomnia Disorder adult insomnia; format: in vivo, human
# Description: Following the evening-time dosing with study drug, subjects underwent eight hours of continuous PSG recording. Next-day residual effects were assessed by the DSST and the KSS evaluation, collected in that order, starting at approximately 30 minutes after “lights-on.” All tests were administered in the clinical unit, beginning 30 minutes after lights-on and periodically thereafter for approximately 16 hours post-lights-off, following completion of PSG recording. Each subject also completed a post-sleep questionnaire once after lights-on so that subjective impressions could be assessed about the “quality” and “quantity” of their sleep. Before the second night dosing in each dosing period, subjects were evaluated for any residual sleepiness. […] Subjects remained in the clinic until residual symptoms were minimized.
# The well-known KSS measures, subjectively, the level of a subject's sleepiness at a specific time of the day and was therefore useful as another indication of next day residual effects, if any. The KSS comprised a 9-step scale (ranging from, e.g., “extremely alert” (assigned 1 point) to alert (assigned 3 points) to “neither sleepy nor alert” (assigned 5 points) to “sleepy” (assigned 7 points) to “extremely sleepy” (assigned 9 points)) that characterized sleepiness at a particular time during the day (within 5 minutes of the assessment).
# In a paper-and-pencil evaluation, each subject checked a box corresponding to the point of the scale that best characterized their state of drowsiness experienced during the preceding 5 minutes. The KSS evaluation followed the DSST after each night of the baseline visit (Visit 2) and after each night of Dosing Periods 1-5 according to the schedule set out in the previous example.
# The KSS evaluation results shown, other than for the baseline, are the mean results obtained from the KSS evaluation scores following all nights of Dosing Periods 1-5 for the indicated dose. The KSS evaluation results for the baseline are the mean results obtained following the first and second nights of the baseline visit. Note that for clarity of display purposes, in FIG. 7 many of the test results at each time period, e.g., at approximately ½ hour after lights-on/9 hours post-dosing, were staggered arbitrarily away from the actual time when the test was conducted.
# [4] = not given; remark: listed apart in the source
# [5] = 0.2 mg aqueous suspension (N =24)
# [6] = 0.6 mg aqueous suspension (N =24)
# [7] = 2.0 mg aqueous suspension (N =23)
# [8] = 6.0 mg aqueous suspension (N =25)
structure (smiles),measurement,setting,value
O=C(O)c1nc2ccccc2n([C@H]2C[C@H]3CCC[C@@H](C2)N3C2CC3CCCC(C3)C2)c1=O (some centres unmarked) [Compound (1C)],major elimination pathway,clinical [1]; human,Renal elimination
same,major metabolite in human plasma,clinical [1]; human plasma,No major metabolite has been identified
same,renal clearance (adjusted by plasma protein binding) compared with glomerular filtration rate,"clinical [1]; human, in vivo",higher than the human glomerular filtration rate
same,Tmax,"clinical [1]; human, in vivo, po",~1.5 h
same,half-life,"clinical [1]; human, in vivo, po",2 to 3 h
same,dose proportionality of exposure,clinical [1]; once a day dosing for 2 weeks,approximately dose-proportional exposure up to 10 mg
same,dose proportionality of exposure,clinical [1]; single oral administration,approximately dose-proportional exposure up to 10 mg
same,unchanged drug recovered in urine,clinical [1]; within 48 hours,80-100%
same,Mean % Dose Excreted Unchanged,"Cohort 1, 3 mg",89%
same,Mean Total Amount Excreted Unchanged,"Cohort 1, 3 mg",2.66 mg
same,Mean % Dose Excreted Unchanged,"Cohort 2, 10 mg",70%
same,Mean Total Amount Excreted Unchanged,"Cohort 2, 10 mg",6.95 mg
same,Mean % Dose Excreted Unchanged,"Cohort 3, 30 mg",28%
same,Mean Total Amount Excreted Unchanged,"Cohort 3, 30 mg",8.37 mg
same,"Fe, Mean (CV %)",clinical [2]; 2 mg + EtOH (0.7 g/kg),84 (33) %
same,"Urine Fe, Mean",clinical [2]; 2 mg Alone (N = 48),80.7%
same,"Fe, Mean (CV %)",clinical [2]; 2 mg alone,81 (12) %
same,PK profile of ethanol on co-administration of Compound (1C),"clinical [2]; 2 mg or 6 mg with ethanol vs ethanol with placebo, FIG. 24",not affected
same,"Urine Fe, Mean",clinical [2]; 2 mg with Alcohol (N = 46),83.6%
same,"Fe, Mean (CV %)",clinical [2]; 6 mg + EtOH (0.7 g/kg),80 (20) %
same,"Urine Fe, Mean",clinical [2]; 6 mg Alone (N = 47),80.8%
same,"Fe, Mean (CV %)",clinical [2]; 6 mg alone,81 (10) %
same,"Urine Fe, Mean",clinical [2]; 6 mg with Alcohol (N = 48),79.6%
same,effect of alcohol on the PK profile of Compound (1C),clinical [2]; 2 and 6 mg with 0.7 g/kg ethanol,does not alter the PK profile
same,"CLr, Mean",clinical [2]; 2 mg,12.7 L/h
same,Tmax,clinical [2]; 2 mg,1.7 h
same,half-life,clinical [2]; 2 mg + EtOH (0.7 g/kg),3.9 h
same,half-life,"clinical [2]; 2 mg, 2 mg alone",4 h
same,AUC,clinical [2]; 2 mg,130 ng·h/mL
same,CL renal,clinical [2]; 2 mg,210 mL/min
same,Cmax,clinical [2]; 2 mg,28.2 ng/mL
same,"CLr, Mean",clinical [2]; 6 mg,12.3 L/h
same,Tmax,clinical [2]; 6 mg,1.9 h
same,half-life,clinical [2]; 6 mg + EtOH (0.7 g/kg),4.5 h
same,half-life,"clinical [2]; 6 mg, 6 mg alone",4.5 h
same,AUC,clinical [2]; 6 mg,402 ng·h/mL
same,CL renal,clinical [2]; 6 mg,198 mL/min
same,Cmax,clinical [2]; 6 mg,78.3 ng/mL
same,next day residual effects by mean KSS evaluation results vs placebo,"[3]; 0.5 mg, about 9 to about 16 hours post-dosing",no next day residual effects
same,next day residual effects by mean KSS evaluation results vs placebo,"[3]; 1.0 mg, about 9 to about 16 hours post-dosing",no next day residual effects
same,next day residual effects by mean KSS evaluation results vs placebo,"[3]; 3.0 mg, each of the testing times",some next day residual effects
same,next day residual effects by mean KSS evaluation results vs placebo,"[3]; 6.0 mg, each of the testing times",some next day residual effects
same,"Ae, Mean",[4]; [5],0.2232 mg
same,"Fe, Mean (fraction of dose excreted unchanged in urine over 24 hours)",[4]; [5],111.60%
same,"Ae, Mean",[4]; [6],0.6891 mg
same,"Fe, Mean (fraction of dose excreted unchanged in urine over 24 hours)",[4]; [6],114.84%
same,"Ae, Mean",[4]; [7],2.165 mg
same,"Fe, Mean (fraction of dose excreted unchanged in urine over 24 hours)",[4]; [7],108.26%
same,"Ae, Mean",[4]; [8],6.653 mg
same,"Fe, Mean (fraction of dose excreted unchanged in urine over 24 hours)",[4]; [8],110.88%
